Test results from patent US5126356A, “Piperidine compounds” (Adir et Compagnie, priority 1989, dated 1992).

Tests used:
Alpha adrenergic α2 = assay: Binding to neurotransmitter receptors: alpha2 adrenergic ([3H] Rauwolscine); conditions: α2, [3H] Rauwolscine; read-out: K0.5
beagle dogs = assay: Anti-ischaemic activity, Protocol 2: moderate coronary stenosis plus auricular pacing in anaesthetised beagle dogs; type: in vivo, dog; conditions: Pacing 2 minutes, 1 mg/kg i.v.
Method: The studies are carried out on beagle dogs weighing from 9 to 12 kg which have been anaesthetised with pentobarbital sodium 30 mg/kg i.v., intubated and ventilated, and subjected to a thoracotomy at the 5th left intercostal space.
An electromagnetic ring connected to a Gould SP 2202 electromagnetic flow meter is placed around the circumflex branch of the left coronary artery, and an inflatable balloon is placed just downstream of that ring for the production of coronary stenoses under the control of the coronary output.
Piezoelectric crystals (5 MHz) connected to a Triton sonomicrometer are implanted in the subendocardium of the left ventricular wall, in an area that is to become ischaemic, for measuring local myocardial contractility; epicardial electrodes are placed in the same area for recording the epicardial electrocardiogram.
Two electrodes are sewn at the right auricle in the region of the sinoauricular node for the protocols including pacing sequences. […]
Myocardial contractility is evaluated by the proportion of systolic shortening of the lengths of the segments between the piezoelectric crystals.
Hypokinesia in the ischaemic area is expressed as percentage variation relative to the contractility measured in the control period.
Modification of the epicardial ECG in the ischaemic area consists in raising the epicardial ST segment measured in millivolts (mV).

type L calcium channels = assay: Binding: displacement of [3H] D888 at the Ca2+ channel; conditions: read-out: K0.5 (50% of specifically fixed radioactivity displaced)

IC50 (Alpha adrenergic α2): 900 nM | IC50 (type L calcium channels): 1300 nM
SMILES: COc1ccc(CSC2CCN(CC=Cc3ccccc3)CC2)c(OC)c1OC [Example 1, 4-(2,3,4-trimethoxybenzylthio)-1-cinnamylpiperidine]
Epicardial ST delta mV (beagle dogs; solvent +6.0): +0.5 mV | Contractility delta % (beagle dogs; solvent -62.6): -42.2%
